From PubChem BioAssay AID1963448 (Molecular Pharmacology Branch, DTP, NCI, 2024)
Where “and” joins values, the source holds several entries; their conditions need not be identical. Equal entries are not always repeated.

Test system: 616215-338-R-J1-PDC complex spheroid growth, % test/control
Test: Anticancer human tumor 616215-338-R-J1-PDC patient-derived colon adenocarcinoma cell line growth inhibition [Asc]
Settings: for viability, T/C: stronger effect = lower value
In short: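 Concentration series start at each agent's clinical Cmax, or at 10 microM when none is established, and drop in half-log steps; agents are applied alone or together to complex spheroids built with HUVEC and hMSC.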

[1] = curve of first compound, second compound 0.00316 µM
[2] = curve of first compound, second compound 0.01 µM
[3] = curve of first compound, second compound 0.0316 µM
[4] = curve of first compound, second compound 0.1 µM
[5] = curve of first compound, second compound 0.316 µM
[6] = curve of first compound, second compound 1 µM
[7] = second compound 0.00316 µM, first compound 0.00949 µM
[8] = second compound 0.00316 µM, first compound 0.03 µM
[9] = second compound 0.00316 µM, first compound 0.0949 µM
[10] = second compound 0.00316 µM, first compound 0.3 µM
[11] = second compound 0.01 µM, first compound 0.00949 µM
[12] = second compound 0.01 µM, first compound 0.03 µM
[13] = second compound 0.01 µM, first compound 0.0949 µM
[14] = second compound 0.01 µM, first compound 0.3 µM
[15] = second compound 0.0316 µM, first compound 0.00949 µM
[16] = second compound 0.0316 µM, first compound 0.03 µM
[17] = second compound 0.0316 µM, first compound 0.0949 µM
[18] = second compound 0.0316 µM, first compound 0.3 µM
[19] = second compound 0.1 µM, first compound 0.00949 µM
[20] = second compound 0.1 µM, first compound 0.03 µM
[21] = second compound 0.1 µM, first compound 0.0949 µM
[22] = second compound 0.1 µM, first compound 0.3 µM
[23] = second compound 0.316 µM, first compound 0.00949 µM
[24] = second compound 0.316 µM, first compound 0.03 µM
[25] = second compound 0.316 µM, first compound 0.0949 µM
[26] = second compound 0.316 µM, first compound 0.3 µM
[27] = second compound 1 µM, first compound 0.00949 µM
[28] = second compound 1 µM, first compound 0.03 µM
[29] = second compound 1 µM, first compound 0.0949 µM
[30] = second compound 1 µM, first compound 0.3 µM
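Note: spheroids exposed to agents for seven days before readout.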
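Throughout, for viability, T/C: 100% = DMSO vehicle control viability.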

`C=CC(=O)N1CCN(c2nc(=O)n(-c3c(C)ccnc3C(C)C)c3nc(-c4c(O)cccc4F)c(F)cc23)C(C)C1` (stereo not drawn) + CNC(C)C(=O)NC1CN(S(=O)(=O)c2cccc(S(=O)(=O)N3CCC4CCC(C(=O)NC(c5ccccc5)c5ccccc5)N4C(=O)C(NC(=O)C(C)NC)C3)c2)CCC2CCC(C(=O)NC(c3ccccc3)c3ccccc3)N2C1=O gave an IC50 [1] of 4240 nM, an IC50 [2] of 2680 nM and an IC50 [3] of 4240 nM. The IC50 [4] was 3320 nM, the IC50 [5] was 2220 nM and the IC50 [6] was 3250 nM. It also gave a viability, T/C (second compound 0.00316 µM, first compound 0.0316 µM) of 109%, a viability, T/C (second compound 0.00316 µM, first compound 0.1 µM) of 99.2% and a viability, T/C (second compound 0.00316 µM, first compound 0.316 µM) of 88%. The viability, T/C (second compound 0.00316 µM, first compound 1 µM) was 78.2%, the viability, T/C (second compound 0.00316 µM, first compound 3.16 µM) was 58% and the viability, T/C (second compound 0.00316 µM, first compound 10 µM) was 29.4%. For the same molecule, the viability, T/C (second compound 0.01 µM, first compound 0.0316 µM) was 110%, the viability, T/C (second compound 0.01 µM, first compound 0.1 µM) was 93.2% and the viability, T/C (second compound 0.01 µM, first compound 0.316 µM) was 95.5%. The viability, T/C (second compound 0.01 µM, first compound 1 µM) was 66.7%, the viability, T/C (second compound 0.01 µM, first compound 3.16 µM) was 47.3% and the viability, T/C (second compound 0.01 µM, first compound 10 µM) was 27.8%. The viability, T/C (second compound 0.0316 µM, first compound 0.0316 µM) was 106%, the viability, T/C (second compound 0.0316 µM, first compound 0.1 µM) was 101% and the viability, T/C (second compound 0.0316 µM, first compound 0.316 µM) was 96%. It also gave a viability, T/C (second compound 0.0316 µM, first compound 1 µM) of 76.9%, a viability, T/C (second compound 0.0316 µM, first compound 3.16 µM) of 58.1% and a viability, T/C (second compound 0.0316 µM, first compound 10 µM) of 29.2%. The viability, T/C (second compound 0.1 µM, first compound 0.0316 µM) was 95.8%, the viability, T/C (second compound 0.1 µM, first compound 0.1 µM) was 101% and the viability, T/C (second compound 0.1 µM, first compound 0.316 µM) was 81.5%. It also gave a viability, T/C (second compound 0.1 µM, first compound 1 µM) of 81.1%, a viability, T/C (second compound 0.1 µM, first compound 3.16 µM) of 48.6% and a viability, T/C (second compound 0.1 µM, first compound 10 µM) of 28.8%. The viability, T/C (second compound 0.316 µM, first compound 0.0316 µM) was 92.6%, the viability, T/C (second compound 0.316 µM, first compound 0.1 µM) was 105% and the viability, T/C (second compound 0.316 µM, first compound 0.316 µM) was 104%. It also gave a viability, T/C (second compound 0.316 µM, first compound 1 µM) of 61.8%, a viability, T/C (second compound 0.316 µM, first compound 3.16 µM) of 53% and a viability, T/C (second compound 0.316 µM, first compound 10 µM) of 36.4%. For the same molecule, the viability, T/C (second compound 1 µM, first compound 0.0316 µM) was 104%, the viability, T/C (second compound 1 µM, first compound 0.1 µM) was 100% and the viability, T/C (second compound 1 µM, first compound 0.316 µM) was 100%. For the same molecule, the viability, T/C (second compound 1 µM, first compound 1 µM) was 68.6%, the viability, T/C (second compound 1 µM, first compound 3.16 µM) was 54.6% and the viability, T/C (second compound 1 µM, first compound 10 µM) was 28.9%.
In the case of `NC(=O)C(=Cn1cnc(-c2cc(C(F)(F)F)cc(C(F)(F)F)c2)n1)c1cncnc1`, the viability, T/C (compound 0.000949 µM) is reported as 97.1% and 89.2% and 43.2%, the viability, T/C (compound 0.003 µM) is reported as 96.8% and 85% and 52.7% and the viability, T/C (compound 0.00949 µM) is reported as 99.3% and 95.9% and 24.4%. The viability, T/C (compound 0.03 µM) was 100% and 86.7% and 29.2%, the viability, T/C (compound 0.0949 µM) was 95.2% and 81.8% and 20.7% and the viability, T/C (compound 0.3 µM) was 97.6% and 91.7% and 30.1%.
For `C#Cc1c(F)ccc2cc(O)cc(-c3ncc4c(N5CC6CCC(C5)N6)nc(OCC56CCCN5CC(F)C6)nc4c3F)c12` (stereo not drawn), the viability, T/C (compound 0.0316 µM) was 105% and 96.2% and 99%, the viability, T/C (compound 0.1 µM) was 96% and 104% and 102% and the viability, T/C (compound 0.316 µM) was 104% (2×) and 94.8%. For the same molecule, the viability, T/C (compound 1 µM) was 106% and 113% and 101%, the viability, T/C (compound 3.16 µM) was 49.3% and 108% and 101% and the IC50 (curve of compound) was 3120 nM and > 10000 nM.
For `CCN1C(C(=O)NC23CCC(C(=O)O)(CC2)CC3)C(c2cccc(Cl)c2F)C2(C(=O)Nc3cc(Cl)ccc32)C12CCCCC2` (stereo not drawn) + CNC(C)C(=O)NC1CN(S(=O)(=O)c2cccc(S(=O)(=O)N3CCC4CCC(C(=O)NC(c5ccccc5)c5ccccc5)N4C(=O)C(NC(=O)C(C)NC)C3)c2)CCC2CCC(C(=O)NC(c3ccccc3)c3ccccc3)N2C1=O, the IC50 [1] was 87.4 nM, the IC50 [2] was 86.5 nM and the IC50 [3] was 175 nM. It also gave an IC50 [4] of 93.1 nM, an IC50 [5] of 80.6 nM and an IC50 [6] of 88.2 nM. The viability, T/C [7] was 109%, the viability, T/C [8] was 108% and the viability, T/C [9] was 41.7%. The viability, T/C [10] was 45.3%, the viability, T/C (second compound 0.00316 µM, first compound 0.949 µM) was 49.6% and the viability, T/C (second compound 0.00316 µM, first compound 3 µM) was 45.4%. The viability, T/C [11] was 108%, the viability, T/C [12] was 104% and the viability, T/C [13] was 41.6%. The viability, T/C [14] was 44%, the viability, T/C (second compound 0.01 µM, first compound 0.949 µM) was 54.3% and the viability, T/C (second compound 0.01 µM, first compound 3 µM) was 41.1%. For the same molecule, the viability, T/C [15] was 99.2%, the viability, T/C [16] was 101% and the viability, T/C [17] was 53.5%. For the same molecule, the viability, T/C [18] was 50%, the viability, T/C (second compound 0.0316 µM, first compound 0.949 µM) was 48.7% and the viability, T/C (second compound 0.0316 µM, first compound 3 µM) was 42%. The viability, T/C [19] was 111%, the viability, T/C [20] was 78.2% and the viability, T/C [21] was 51.1%. The viability, T/C [22] was 36.3%, the viability, T/C (second compound 0.1 µM, first compound 0.949 µM) was 52.8% and the viability, T/C (second compound 0.1 µM, first compound 3 µM) was 41.1%. It also gave a viability, T/C [23] of 97.5%, a viability, T/C [24] of 89.5% and a viability, T/C [25] of 43.4%. The viability, T/C [26] was 41.2%, the viability, T/C (second compound 0.316 µM, first compound 0.949 µM) was 44.9% and the viability, T/C (second compound 0.316 µM, first compound 3 µM) was 44.1%. For the same molecule, the viability, T/C [27] was 89.8%, the viability, T/C [28] was 83.4% and the viability, T/C [29] was 47.5%. The viability, T/C [30] was 43.5%, the viability, T/C (second compound 1 µM, first compound 0.949 µM) was 60.1% and the viability, T/C (second compound 1 µM, first compound 3 µM) was 39.5%.
Work on `NC(=O)C(=Cn1cnc(-c2cc(C(F)(F)F)cc(C(F)(F)F)c2)n1)c1cncnc1` + CNC(C)C(=O)NC1CN(S(=O)(=O)c2cccc(S(=O)(=O)N3CCC4CCC(C(=O)NC(c5ccccc5)c5ccccc5)N4C(=O)C(NC(=O)C(C)NC)C3)c2)CCC2CCC(C(=O)NC(c3ccccc3)c3ccccc3)N2C1=O yielded an IC50 [1] greater than 300 nM, an IC50 [2] greater than 300 nM and an IC50 [3] greater than 300 nM. It also gave an IC50 [4] greater than 300 nM, an IC50 [5] greater than 300 nM and an IC50 [6] of 191 nM. It also gave a viability, T/C (second compound 0.00316 µM, first compound 0.000949 µM) of 104%, a viability, T/C (second compound 0.00316 µM, first compound 0.003 µM) of 105% and a viability, T/C [7] of 94.3%. It also gave a viability, T/C [8] of 83.3%, a viability, T/C [9] of 73.9% and a viability, T/C [10] of 53.2%. It also gave a viability, T/C (second compound 0.01 µM, first compound 0.000949 µM) of 107%, a viability, T/C (second compound 0.01 µM, first compound 0.003 µM) of 108% and a viability, T/C [11] of 96.2%. For the same molecule, the viability, T/C [12] was 72%, the viability, T/C [13] was 76.2% and the viability, T/C [14] was 71.4%. The viability, T/C (second compound 0.0316 µM, first compound 0.000949 µM) was 115%, the viability, T/C (second compound 0.0316 µM, first compound 0.003 µM) was 108% and the viability, T/C [15] was 95.8%. The viability, T/C [16] was 64.6%, the viability, T/C [17] was 78.4% and the viability, T/C [18] was 54.7%. The viability, T/C (second compound 0.1 µM, first compound 0.000949 µM) was 117%, the viability, T/C (second compound 0.1 µM, first compound 0.003 µM) was 110% and the viability, T/C [19] was 102%. The viability, T/C [20] was 68.5%, the viability, T/C [21] was 70.5% and the viability, T/C [22] was 68.5%. The viability, T/C (second compound 0.316 µM, first compound 0.000949 µM) was 118%, the viability, T/C (second compound 0.316 µM, first compound 0.003 µM) was 118% and the viability, T/C [23] was 105%. It also gave a viability, T/C [24] of 61.1%, a viability, T/C [25] of 60.9% and a viability, T/C [26] of 67%. For the same molecule, the viability, T/C (second compound 1 µM, first compound 0.000949 µM) was 112%, the viability, T/C (second compound 1 µM, first compound 0.003 µM) was 110% and the viability, T/C [27] was 71.1%. The viability, T/C [28] was 88.2%, the viability, T/C [29] was 59% and the viability, T/C [30] was 41.5%.
